According to PubChem BioAssay (NCI):
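Growth conditions: 96-well plates. Treatment: test compound, 48 hours, 5 concentrations. Analysis: linear interpolation between bracketing concentrations; unreached endpoints set to highest concentration. The concentration for full growth arrest is given as TGI.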

Key:
Assay in all cases: NCI anticancer screen, dose series, 48 h
DMS 114 small cell lung = test system: DMS 114 small cell lung
HOP-18 NSCLC = test system: HOP-18 NSCLC
DMS 273 small cell lung = test system: DMS 273 small cell lung
SNB-78 CNS = test system: SNB-78 CNS
DLD-1 colon = test system: DLD-1 colon
KM20L2 colon = test system: KM20L2 colon
LXFL 529 NSCLC = test system: LXFL 529 NSCLC

Which TGI (DMS 114 small cell lung) does the source give for `Cc1c2cc[n+](C)cc2c(C)c2c1[nH]c1ccc(Cl)cc12` here?
The TGI was 2.78 µM.

What about the TGI (HOP-18 NSCLC) of the same compound?
The TGI was 22.7 µM.

And the TGI (DMS 273 small cell lung)?
The TGI was 35.7 µM.

And the TGI (SNB-78 CNS)?
The TGI was 2.56 µM.

What about the TGI (DLD-1 colon) of the same compound?
The TGI was over 100 µM.

What about the TGI (KM20L2 colon) of the same compound?
Its TGI is 46 µM.

And the TGI (LXFL 529 NSCLC)?
The TGI was 2.59 µM.

`C=C(Br)C(C)(Br)CCC(Br)C(C)(C)Br` (stereo not drawn) was tested. Which TGI (DMS 114 small cell lung) did it give?
The TGI was 31.6 µM.

What about the TGI (HOP-18 NSCLC) of the same compound?
Its TGI is over 100 µM.

And the TGI (DMS 273 small cell lung)?
Its TGI is 42.9 µM.

And the TGI (SNB-78 CNS)?
Its TGI is 70.4 µM.

What about the TGI (DLD-1 colon) of the same compound?
The TGI was over 100 µM.

And the TGI (LXFL 529 NSCLC)?
The TGI was 45.2 µM.
